pIC50: −log10 of the molar value. Where two headings read alike, the source gives them in different places.
System: Toledo cells
Experiment: Cell proliferation assay, Toledo cells (MTS, 72 h)
Format: cell-based
Details: Toledo cells, MTS, read-out: Toledo IC50
Protocol: MTS testing kit was purchased from Promega (Madison, Wis., USA). The RPMI-1640, Fetal bovine serum and Penicillin-Streptomycin were purchased from BI (Biological Industries, Beit Haemek, Israel). Dimethyl sulfoxide (DMSO) was purchased from Sigma (St. Louis, Mo., USA). Toledo (ATCC catalog #: CRL-2631) cells were cultured in RPMI-1640 supplemented with Penicillin-Streptomycin and 10% FBS.
To investigate whether a compound is able to inhibit the activity of BCL-2 in cells, a mechanism-based assay using Toledo lines was developed. In this assay, the inhibition of BCL-2 was reflected by the inhibition of cell proliferation of Toledo cells. Cells were plated into 96-well plates at the optimized cell density of 30000 cells/well. Plates were incubated at 37° C., with 5% CO2 for 4h. Compounds were serially diluted and added to the plates with the final concentrations of 10000, 3333.3, 1111.1, 370.4, 123.5, 41.2, 13.7, 4.6 and 1.5 nM. Plates were incubated at 37° C., with 5% CO2 for 72 h. 20 μl MTS was added into each well and the plates were incubated at 37° C., with 5% CO2 for exactly 2 h. The absorbance was measured by a microplate reader at 490 nm. IC50 was calculated using GraphPad Prism 5.0 software.

For COCCOc1nc2[nH]ccc2cc1Oc1cc(N2CCC3(CC2)CC(N2CCC[C@H]2c2ccccc2C(C)C)C3)ccc1C(=O)NS(=O)(=O)c1cc2c(c([N+](=O)[O-])c1)N[C@@H](C[C@H]1CC[C@](C)(O)CC1)CO2 (single isomer, unassigned) [Example D-21, N-(((S)-3-(((1r,4S)-4-hydroxy-4-methylcyclohexyl)methyl)-5-nitro-3,4-dihydro-2H-benzo[b][1,4]oxazin-7-yl)sulfonyl)-4-(2-((R or S)-2-(2-isopropylphenyl)pyrrolidin-1-yl)-7-azaspiro[3.5]nonan-7-yl)-2-((6-(2-methoxyethoxy)-1H-pyrrolo[2,3-b]pyridin-5-yl)oxy) benzamide], the pIC50 (Homo sapiens) was 9.00.
Work on CC(C)c1ccccc1[C@@H]1CCC[C@@H]1N1CC2(CCN(c3ccc(C(=O)NS(=O)(=O)c4cc5c(c([N+](=O)[O-])c4)N[C@@H]([C@H]4CC[C@](C)(O)CC4)CO5)c(Oc4cnc5[nH]cc(F)c5c4)c3)CC2)C1 (single isomer, unassigned) [Example D-28b, 2-((3-fluoro-1H-pyrrolo[2,3-b]pyridin-5-yl)oxy)-N-(((S)-3-((1r,4S)-4-hydroxy-4-methylcyclohexyl)-5-nitro-3,4-dihydro-2H-benzo[b] [1,4]oxazin-7-yl)sulfonyl)-4-(2-((1S,2S or 1R,2R)-2-(2-isopropylphenyl)cyclopentyl)-2,7-diazaspiro[3.5]nonan-7-yl)benzamide] yielded a pIC50 of 9.00.
With Cc1nc2[nH]ccc2cc1Oc1cc(N2CCC3(CC2)CC(N2CCC[C@H]2c2ccccc2C(C)C)C3)ccc1C(=O)NS(=O)(=O)c1cc2c(c([N+](=O)[O-])c1)N[C@@H]([C@H]1CC[C@](C)(O)CC1)CO2 (single isomer, unassigned) [Example D-39, N-(((S)-3-((1r,4S)-4-hydroxy-4-methylcyclohexyl)-5-nitro-3,4-dihydro-2H-benzo[b][1,4]oxazin-7-yl)sulfonyl)-4-(2-((R or S)-2-(2-isopropylphenyl)pyrrolidin-1-yl)-7-azaspiro[3.5]nonan-7-yl)-2-((6-methyl-1H-pyrrolo[2,3-b]pyridin-5-yl)oxy)benzamide] the pIC50 (Homo sapiens) was 9.00.
Molecule CC(C)c1ccccc1[C@@H]1CCCN1C1CC2(CCN(c3ccc(C(=O)NS(=O)(=O)c4cc5c(c([N+](=O)[O-])c4)N[C@@H](C4CCC(O)CC4)CO5)c(Oc4cnc5[nH]cc(F)c5c4)c3)CC2)C1 (single isomer, unassigned) [Example D-40, 2-((3-fluoro-1H-pyrrolo[2,3-b]pyridin-5-yl)oxy)-N-(((S)-3-((1s,4R)-4-hydroxycyclohexyl)-5-nitro-3,4-dihydro-2H-benzo[b][1,4]oxazin-7-yl)sulfonyl)-4-(2-((R or S)-2-(2-isopropylphenyl)pyrrolidin-1-yl)-7-azaspiro[3.5]nonan-7-yl)benzamide] has a pIC50 (Homo sapiens) of 9.00.
For CC(C)c1ccccc1[C@@H]1CCCN1C1CC2(CCN(c3ccc(C(=O)NS(=O)(=O)c4cc5c(c([N+](=O)[O-])c4)N[C@@H]([C@H]4CC[C@H](O)CC4)CO5)c(Oc4cnc5[nH]cc(F)c5c4)c3)CC2)C1 (single isomer, unassigned) [Example D-41, 2-((3-fluoro-1H-pyrrolo[2,3-b]pyridin-5-yl)oxy)-N-(((S)-3-((1r,4S)-4-hydroxycyclohexyl)-5-nitro-3,4-dihydro-2H-benzo[b][1,4]oxazin-7-yl)sulfonyl)-4-(2-((R or S)-2-(2-isopropylphenyl)pyrrolidin-1-yl)-7-azaspiro[3.5]nonan-7-yl)benzamide], the pIC50 (Homo sapiens) was 9.00.
For CC(C)c1ccccc1[C@@H]1CCCN1C1CC2(CCN(c3ccc(C(=O)NS(=O)(=O)c4cc5c(c([N+](=O)[O-])c4)N[C@H]([C@H]4CC[C@H](O)CC4)CO5)c(Oc4cnc5[nH]cc(F)c5c4)c3)CC2)C1 (single isomer, unassigned) [Example D-42, 2-((3-fluoro-1H-pyrrolo[2,3-b]pyridin-5-yl)oxy)-N-(((R)-3-((1r,4R)-4-hydroxycyclohexyl)-5-nitro-3,4-dihydro-2H-benzo[b][1,4]oxazin-7-yl)sulfonyl)-4-(2-((R or S)-2-(2-isopropylphenyl)pyrrolidin-1-yl)-7-azaspiro[3.5]nonan-7-yl)benzamide], the pIC50 (Homo sapiens) was 9.00.
CC(C)c1ccccc1[C@@H]1CCCN1C1CC2(CCN(c3ccc(C(=O)NS(=O)(=O)c4cc5c(c([N+](=O)[O-])c4)N[C@H]([C@H]4CC[C@@H](O)CC4)CO5)c(Oc4cnc5[nH]cc(F)c5c4)c3)CC2)C1 (single isomer, unassigned) [Example D-43, 2-((3-fluoro-1H-pyrrolo[2,3-b]pyridin-5-yl)oxy)-N-(R)-3-((1s,4S)-4-hydroxycyclohexyl)-5-nitro-3,4-dihydro-2H-benzo[b][1,4]oxazin-7-yl)sulfonyl)-4-(2-((R or S)-2-(2-isopropylphenyl)pyrrolidin-1-yl)-7-azaspiro[3.5]nonan-7-yl)benzamide] showed a pIC50 (Homo sapiens) of 9.00.
Molecule CO[C@H]1CC[C@H]([C@H]2COc3cc(S(=O)(=O)NC(=O)c4ccc(N5CCC6(CC5)CC(N5CCC[C@H]5c5ccccc5C(C)C)C6)cc4Oc4cnc5[nH]cc(F)c5c4)cc([N+](=O)[O-])c3N2)CC1 (single isomer, unassigned) [Example D-44, 2-((3-fluoro-1H-pyrrolo[2,3-b]pyridin-5-yl)oxy)-4-(2-((R or S)-2-(2-isopropylphenyl)pyrrolidin-1-yl)-7-azaspiro[3.5]nonan-7-yl)-N-(((S)-3-((1r,4S)-4-methoxycyclohexyl)-5-nitro-3,4-dihydro-2H-benzo[b][1,4]oxazin-7-yl)sulfonyl)benzamide] has a pIC50 (Homo sapiens) of 9.00.
In the case of CO[C@H]1CC[C@H]([C@@H]2COc3cc(S(=O)(=O)NC(=O)c4ccc(N5CCC6(CC5)CC(N5CCC[C@H]5c5ccccc5C(C)C)C6)cc4Oc4cnc5[nH]cc(F)c5c4)cc([N+](=O)[O-])c3N2)CC1 (single isomer, unassigned) [Example D-45, 2-((3-fluoro-1H-pyrrolo[2,3-b]pyridin-5-yl)oxy)-4-(2-((R or S)-2-(2-isopropylphenyl)pyrrolidin-1-yl)-7-azaspiro[3.5]nonan-7-yl)-N-(((R)-3-((1r,4S)-4-methoxycyclohexyl)-5-nitro-3,4-dihydro-2H-benzo[b][1,4]oxazin-7-yl)sulfonyl)benzamide], the pIC50 (Homo sapiens) was 9.00.
CO[C@H]1CC[C@@H]([C@@H]2COc3cc(S(=O)(=O)NC(=O)c4ccc(N5CCC6(CC5)CC(N5CCC[C@H]5c5ccccc5C(C)C)C6)cc4Oc4cnc5[nH]cc(F)c5c4)cc([N+](=O)[O-])c3N2)CC1 (single isomer, unassigned) [Example D-46, 2-((3-fluoro-1H-pyrrolo[2,3-b]pyridin-5-yl)oxy)-4-(2-((R or S)-2-(2-isopropylphenyl)pyrrolidin-1-yl)-7-azaspiro[3.5]nonan-7-yl)-N-(((R)-3-((1s,4S)-4-methoxycyclohexyl)-5-nitro-3,4-dihydro-2H-benzo[b][1,4]oxazin-7-yl)sulfonyl)benzamide] showed a pIC50 (Homo sapiens) of 9.00.
Molecule CC(C)c1ccccc1C1CCCN1C1CC2(CCN(c3ccc(C(=O)NS(=O)(=O)c4cc5c(c([N+](=O)[O-])c4)N[C@@H](C4CCC(F)(F)CC4)CO5)c(Oc4cnc5[nH]cc(F)c5c4)c3)CC2)C1 (single isomer, unassigned) [Example D-47, N-(((S)-3-(4,4-difluorocyclohexyl)-5-nitro-3,4-dihydro-2H-benzo [b][1,4]oxazin-7-yl)sulfonyl)-2-((3-fluoro-1H-pyrrolo[2,3-b]pyridin-5-yl)oxy)-4-(2-((R or S)-2-(2-isopropylphenyl)pyrrolidin-1-yl)-7-azaspiro[3.5]nonan-7-yl)benzamide] has a pIC50 (Homo sapiens) of 9.00.
CC(C)c1ccccc1[C@@H]1CCCN1C1CC2(CCN(c3ccc(C(=O)NS(=O)(=O)c4cc5c(c([N+](=O)[O-])c4)N[C@@H](C4CCOCC4)CO5)c(Oc4cnc5[nH]cc(F)c5c4)c3)CC2)C1 (single isomer, unassigned) [Example D-48, 2-((3-fluoro-1H-pyrrolo[2,3-b]pyridin-5-yl)oxy)-4-(2-((R or S)-2-(2-isopropylphenyl)pyrrolidin-1-yl)-7-azaspiro[3.5]nonan-7-yl)-N-(((S)-5-nitro-3-(tetrahydro-2H-pyran-4-yl)-3,4-dihydro-2H-benzo[b][1,4]oxazin-7-yl)sulfonyl) benzamide] was tested, and the pIC50 (Homo sapiens) was 9.00.
Work on CC(C)c1ccccc1[C@H]1CCCN1C1CC2(CCN(c3ccc(C(=O)NS(=O)(=O)c4cc5c(c([N+](=O)[O-])c4)NC([C@@H]4COCCO4)CO5)c(Oc4cnc5[nH]cc(F)c5c4)c3)CC2)C1 (single isomer, unassigned) [Example D-49a, N-(((R or S)-3-((R)-1,4-dioxan-2-yl)-5-nitro-3,4-dihydro-2H-benzo[b][1,4]oxazin-7-yl)sulfonyl)-2-((3-fluoro-1H-pyrrolo[2,3-b]pyridin-5-yl)oxy)-4-(2-((R or S)-2-(2-isopropylphenyl)pyrrolidin-1-yl)-7-azaspiro[3.5]nonan-7-yl)benzamide] yielded a pIC50 (Homo sapiens) of 9.00.
With CC(C)c1ccccc1[C@H]1CCCN1C1CC2(CCN(c3ccc(C(=O)NS(=O)(=O)c4cc5c(c([N+](=O)[O-])c4)NC([C@@H]4COCCO4)CO5)c(Oc4cnc5[nH]cc(F)c5c4)c3)CC2)C1 (single isomer, unassigned) [Example D-49b, N-(((R or S)-3-((R)-1,4-dioxan-2-yl)-5-nitro-3,4-dihydro-2H-benzo[b][1,4]oxazin-7-yl)sulfonyl)-2-((3-fluoro-1H-pyrrolo[2,3-b]pyridin-5-yl)oxy)-4-(2-((R or S)-2-(2-isopropylphenyl)pyrrolidin-1-yl)-7-azaspiro[3.5]nonan-7-yl)benzamide] the pIC50 was 9.00.
